Measured values from US20130184222A1, “[…] ACTIVE COMPOSITIONS AND THEIR METHODS OF USE” (AGIOS PHARMACEUTICALS, INC, priority 2010, published 2013).

How the values were obtained:
IDH1 R132H = IDH1 R132H (Homo sapiens, UniProt O75874, R132H); experiment: In vitro assay for IDH1 R132H inhibitors (NADPH/aKG, resazurin detection); assay type: biochemical; details: Table 4B; 0.2 μg/ml IDH1 R132H, 50 minutes at room temperature; read-out: IC50, IDH1 R132H Inhibition
How it was run: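 Reaction ran 50 min at room temperature in Tris pH 7.5 buffer with 150 mM NaCl, 10 mM MgCl2 and 0.03% BSA. Mix concentrations were 0.2 μg/ml mutant enzyme, 8 uM NADPH and 2 mM aKG. Detection added 30 μM resazurin, with resorufin fluorescence (Ex544/Em590) measured 5 min later.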

HT1080 cells = experiment: Cellular assay: inhibition of 2-HG production in HT1080 cells (LC-MS, 48 hours); assay type: cell-based; details: Homo sapiens, HT-1080, 2-HG in media by LC-MS
How it was run: (§1)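 HT1080 or U87MG cells (5000/well, DMEM + 10% FBS) seeded overnight, then exposed to compound (0.2% DMSO final) for 48 h; medium 2-HG measured by LC-MS. Viability read by CellTiter-Glo luminescence at 72 h.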

U87MG cells = experiment: Cellular assay: inhibition of 2-HG production in U87MG cells (LC-MS, 48 hours); assay type: cell-based; details: Homo sapiens, U-87 MG, 2-HG in media by LC-MS
How it was run: as §1

IDH1 R132H, sequence (O75874 whole entry R132H): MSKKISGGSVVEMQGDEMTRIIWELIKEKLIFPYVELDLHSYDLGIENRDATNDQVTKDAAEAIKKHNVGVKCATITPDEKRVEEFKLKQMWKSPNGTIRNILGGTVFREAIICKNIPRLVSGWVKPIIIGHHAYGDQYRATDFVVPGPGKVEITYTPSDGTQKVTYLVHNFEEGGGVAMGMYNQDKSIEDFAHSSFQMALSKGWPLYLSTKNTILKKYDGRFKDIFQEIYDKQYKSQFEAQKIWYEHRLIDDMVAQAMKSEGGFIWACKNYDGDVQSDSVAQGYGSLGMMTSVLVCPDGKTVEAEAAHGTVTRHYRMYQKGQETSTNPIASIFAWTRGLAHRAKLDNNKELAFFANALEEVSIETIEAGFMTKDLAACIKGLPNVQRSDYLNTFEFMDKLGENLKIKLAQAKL

IC50 (IDH1 R132H) | IC50 (HT1080 cells) | IC50 (U87MG cells) | Structure (SMILES)
100 to 1000 nM | 250 to 1000 nM | 250 to 1000 nM | Cc1ccccc1C(C(=O)NC1CCCCC1)N(C(=O)COc1cccnn1)c1cccc(F)c1 (stereo not drawn) [Compound 273]
≤ 100 nM | 250 to 1000 nM | 250 to 1000 nM | Cc1ccccc1C(C(=O)NC1CCC(F)(F)CC1)N(C(=O)CNc1cccnc1F)c1cccc(F)c1 (stereo not drawn) [Compound 378]
100 to 1000 nM | 250 to 1000 nM | 250 to 1000 nM | CC(=O)Oc1ccc(C(=O)N(c2cccc(F)c2)C(C(=O)NC2CCCCC2)c2ccccc2C)cc1 (stereo not drawn) [Compound 215, Acetic acid 4-[(cyclohexylcarbamoyl-o-tolyl-methyl)-(3-fluoro-phenyl)-carbamoyl]-phenyl ester]
≤ 100 nM | ≤ 250 nM | ≤ 250 nM | Cc1nccn1CC(=O)N(c1cccc(F)c1)C(C(=O)NC1CCCCC1)c1ccccc1Cl (stereo not drawn) [Compound 314]
100 to 1000 nM | 250 to 1000 nM | 1000 to 5000 nM | Cc1ccccc1C(C(=O)NC1CCCCC1)N(C(=O)CNCCc1cccnc1)c1cccc(F)c1 (stereo not drawn) [Compound 193]
≤ 100 nM | ≤ 250 nM | ≤ 250 nM | COC(=O)NCC(=O)N(c1cccc(F)c1)C(C(=O)NC1CCCCC1)c1ccccc1C (stereo not drawn) [Compound 334]
100 to 1000 nM | 250 to 1000 nM | 250 to 1000 nM | Cc1ccccc1[C@@H](C(=O)NC1CCCCC1)N(C(=O)[C@H]1CCCCN1S(C)(=O)=O)c1cccc(F)c1 [Compound 346]
100 to 1000 nM | 1000 to 5000 nM | 1000 to 5000 nM | Cc1ccccc1C(C(=O)NC1CCCCC1)N(C(=O)CNc1ccnc(F)c1)c1cccc(F)c1 (stereo not drawn) [Compound 280]
100 to 1000 nM | 250 to 1000 nM | 250 to 1000 nM | CCOC(=O)N1CCN(CC(=O)N(c2cccc(F)c2)C(C(=O)NC2CCCCC2)c2ccccc2C)CC1 (stereo not drawn) [Compound 249]
100 to 1000 nM | 250 to 1000 nM | 250 to 1000 nM | Cc1ccccc1C(C(=O)NC1CCC(F)(F)CC1)N(C(=O)CNc1ncccc1F)c1cccc(F)c1 (stereo not drawn) [Compound 342]
100 to 1000 nM | 1000 to 5000 nM | 1000 to 5000 nM | Cc1ccccc1C(C(=O)NC1CCCCC1)N(C(=O)CNCCc1ccccn1)c1cccc(F)c1 (stereo not drawn) [Compound 192]
100 to 1000 nM | 1000 to 5000 nM | ≤ 250 nM | Cc1ccccc1C(C(=O)NC1CCCCC1)N(C(=O)Cn1ccnc1C)c1cccc(N2CCOCC2)c1 (stereo not drawn) [Compound 231]
≤ 100 nM | ≤ 250 nM | ≤ 250 nM | Cc1ccccc1C(C(=O)NC1CCCCC1)N(C(=O)Cc1n[nH]c2ccccc12)c1cccc(F)c1 (stereo not drawn) [Compound 289]
≤ 100 nM | 250 to 1000 nM | ≤ 250 nM | Cc1ccccc1C(C(=O)NC1CCCCC1)N(C(=O)Cc1ccc2[nH]ccc2c1)c1cccc(F)c1 (stereo not drawn) [Compound 297]
100 to 1000 nM | 1000 to 5000 nM | 250 to 1000 nM | CC(=O)N1CCC[C@H]1C(=O)N(c1cccc(F)c1)[C@H](C(=O)NC1CCCCC1)c1ccccc1C [Compound 370]
100 to 1000 nM | 250 to 1000 nM | 250 to 1000 nM | Cc1ccccc1C(C(=O)NC1CCCCC1)N(C(=O)C(C)c1c[nH]c2ccccc12)c1cccc(F)c1 (stereo not drawn) [Compound 283]
≤ 100 nM | 250 to 1000 nM | ≤ 250 nM | COC(=O)N1CCCCC1C(=O)N(c1cccc(F)c1)C(C(=O)NC1CCCCC1)c1ccccc1C (stereo not drawn) [Compound 293]
≤ 100 nM | 250 to 1000 nM | 250 to 1000 nM | O=C(NC1CCCCC1)C(c1ccccc1F)N(C(=O)Cc1cscn1)c1cccc(F)c1 (stereo not drawn) [Compound 320]
100 to 1000 nM | 250 to 1000 nM | 1000 to 5000 nM | Cc1ccccc1C(C(=O)NC1CCCCC1)N(C(=O)Cc1c[nH]c2ccncc12)c1cccc(F)c1 (stereo not drawn) [Compound 261]
100 to 1000 nM | ≤ 250 nM | 250 to 1000 nM | Cc1ccccc1C(C(=O)NC1CCCCC1)N(C(=O)Cn1cnc2ccccc21)c1ccn(C)n1 (stereo not drawn) [Compound 255]
≤ 100 nM | ≤ 250 nM | 250 to 1000 nM | Cc1ccccc1C(C(=O)NC1CCCCC1)N(C(=O)CN1CCCc2ccccc21)c1cccc(F)c1 (stereo not drawn) [Compound 160]
100 to 1000 nM | 1000 to 5000 nM | 1000 to 5000 nM | Cc1ccccc1C(C(=O)NC1CCCCC1)N(C(=O)Cn1cc[nH]c1=O)c1cccc(F)c1 (stereo not drawn) [Compound 319]
100 to 1000 nM | 1000 to 5000 nM | ≤ 250 nM | O=C(NC1CCCCC1)C(c1ccccc1)N(C(=O)Cn1ccnc1)c1cccc(F)c1 (stereo not drawn) [Compound 296]
100 to 1000 nM | 250 to 1000 nM | 250 to 1000 nM | Cc1ccccc1C(C(=O)NC1CCCCC1)N(C(=O)CO[C@H]1CCOC1)c1cccc(F)c1 (stereo partly drawn) [Compound 251]

IC50 (IDH1 R132H) | IC50 (HT1080 cells) | IC50 (U87MG cells) | Structure (SMILES)
100 to 1000 nM | 250 to 1000 nM | ≤ 250 nM | Cc1ccccc1C(C(=O)NC1CCCCC1)N(C(=O)Cn1ccnc1C)c1cccc(-c2ccccc2)c1 (stereo not drawn) [Compound 286]
100 to 1000 nM | 250 to 1000 nM | 250 to 1000 nM | Cc1ccccc1C(C(=O)NC1CCCCC1)N(Cc1cccs1)C(=O)Cn1cnc2ccccc21 (stereo not drawn) [Compound 167]
100 to 1000 nM | 250 to 1000 nM | 1000 to 5000 nM | Cc1ccccc1C(C(=O)NC1CCCCC1)N(C(=O)Cn1cccn1)c1cccc(F)c1 (stereo not drawn) [Compound 317]
100 to 1000 nM | 250 to 1000 nM | ≤ 250 nM | Cc1ccccc1C(C(=O)NC1CCCCC1)N(C(=O)Cn1ccnc1C(F)(F)F)c1cccc(F)c1 (stereo not drawn) [Compound 344]
100 to 1000 nM | > 5000 nM | > 5000 nM | Cc1ccccc1C(C(=O)NC1CCCCC1)N(C(=O)Cn1cnc2cnccc21)c1cccc(F)c1 (stereo not drawn) [Compound 266]
100 to 1000 nM | 1000 to 5000 nM | 1000 to 5000 nM | Cc1ccccc1C(C(=O)NC1CCCCC1)N(C(=O)Cn1ccnc1C)c1cccc(-c2cccc(OC(F)(F)F)c2)c1 (stereo not drawn) [Compound 292]
100 to 1000 nM | 250 to 1000 nM | 1000 to 5000 nM | Cc1ccccc1C(C(=O)NC1CCCCC1)N(C(=O)Cc1cccs1)c1ccn(C)n1 (stereo not drawn) [Compound 166]
100 to 1000 nM | 1000 to 5000 nM | ≤ 250 nM | Cc1ccccc1C(C(=O)NC1CCCCC1)N(C(=O)Cn1ccnc1C)c1cccc(N2CCN(C(=O)OC(C)(C)C)CC2)c1 (stereo not drawn) [Compound 232]
100 to 1000 nM | 250 to 1000 nM | 250 to 1000 nM | COC(=O)NCC(=O)N(c1ccccc1F)C(C(=O)NC1CCCCC1)c1ccccc1C (stereo not drawn) [Compound 357]
≤ 100 nM | ≤ 250 nM | 250 to 1000 nM | COc1cccc(NCC(=O)N(c2cccc(F)c2)C(C(=O)NC2CCCCC2)c2ccccc2C)c1 (stereo not drawn) [Compound 247]
100 to 1000 nM | 1000 to 5000 nM | ≤ 250 nM | Cc1ccccc1C(C(=O)NC1CCCCC1)N(C(=O)CNc1ncc[nH]1)c1cccc(F)c1 (stereo not drawn) [Compound 308]
100 to 1000 nM | ≤ 250 nM | 250 to 1000 nM | Cc1ccccc1C(C(=O)NC1CCCCC1)N(C(=O)COCc1ccccn1)c1cccc(F)c1 (stereo not drawn) [Compound 281]
≤ 100 nM | ≤ 250 nM | 250 to 1000 nM | Cc1ccccc1C(C(=O)NC1CCCCC1)N(C(=O)CNc1ccc(-c2ncon2)cc1)c1cccc(F)c1 (stereo not drawn) [Compound 291]
100 to 1000 nM | 1000 to 5000 nM | 250 to 1000 nM | O=C(NC1CCCCC1)C(c1ccccc1F)N(C(=O)Cn1ccc2ncccc21)c1cccc(F)c1 (stereo not drawn) [Compound 324]
100 to 1000 nM | 250 to 1000 nM | 1000 to 5000 nM | Cc1ccccc1C(C(=O)NC1CCCCC1)N(Cc1cccs1)C(=O)Cn1c(C)nc2ccccc21 (stereo not drawn) [Compound 175]
≤ 100 nM | 250 to 1000 nM | ≤ 250 nM | COC(=O)N1CCCC1C(=O)N(c1cccc(F)c1)C(C(=O)NC1CCCCC1)c1ccccc1C (stereo not drawn) [Compound 306]
≤ 100 nM | ≤ 250 nM | ≤ 250 nM | Cc1ccccc1C(C(=O)NC1CC(F)(F)C1)N(C(=O)CNc1cccnc1F)c1cccc(F)c1 (stereo not drawn) [Compound 381]
100 to 1000 nM | 1000 to 5000 nM | 1000 to 5000 nM | Cc1ccccc1C(C(=O)NC1CCCCC1)N(Cc1nccs1)C(=O)Cn1nnc2ccccc21 (stereo not drawn) [Compound 205]
100 to 1000 nM | 1000 to 5000 nM | 1000 to 5000 nM | CCC(=O)N1CCCCC1C(=O)N(c1cccc(F)c1)C(C(=O)NC1CCCCC1)c1ccccc1C (stereo not drawn) [Compound 328]
100 to 1000 nM | 250 to 1000 nM | 250 to 1000 nM | Cc1ccccc1C(C(=O)NC1CCCCC1)N(C(=O)Cc1cn(C)c2ccccc12)c1cccc(F)c1 (stereo not drawn) [Compound 243]
100 to 1000 nM | 1000 to 5000 nM | ≤ 250 nM | Cc1nccn1CC(=O)N(c1cccc(F)c1)C(C(=O)NC1CCCCC1)c1ccccc1F (stereo not drawn) [Compound 312]
≤ 100 nM | ≤ 250 nM | ≤ 250 nM | [2H]C1([2H])C([2H])([2H])C([2H])([2H])C([2H])(NC(=O)C(c2ccccc2C)N(C(=O)CNc2ncccc2F)c2cccc(F)c2)C([2H])([2H])C1([2H])[2H] (stereo not drawn) [Compound 361]
100 to 1000 nM | > 5000 nM | 1000 to 5000 nM | CC(=O)Nc1cccc(N(C(=O)Cn2ccnc2C)C(C(=O)NC2CCCCC2)c2ccccc2C)c1 (stereo not drawn) [Compound 236]

Structure (SMILES) | IC50 (IDH1 R132H) | IC50 (HT1080 cells) | IC50 (U87MG cells)
Cc1ccccc1C(C(=O)NC1CCCCC1)N(Cc1cccs1)C(=O)Oc1ccccc1 (stereo not drawn) [Compound 387] | 1000 to 10000 nM | 1000 to 5000 nM | > 5000 nM
CN(C)C(=O)Oc1ccc(CC(=O)N(c2cccc(F)c2)C(C(=O)NC2CCCCC2)c2ccccc2F)cc1 (stereo not drawn) [Compound 313] | ≤ 100 nM | ≤ 250 nM | ≤ 250 nM
